Results from article PMC11823594, “Durlobactam in combination with β-lactams to combat Mycobacterium abscessus” (Antimicrobial Agents and Chemotherapy, 2024).
Converted amounts (≈) assume the structure as drawn. Like-named read-outs stand apart in the source and are kept apart here.

Key:
Mab ATCC 19977 strain = test: MIC testing (CLSI, Middlebrook 7H9 broth); assay type: cell-based, Mycobacterium abscessus; conditions: for MIC: Mycobacteroides abscessus, read-out: MIC, alone
[1] = Predicted average unbound steady-state plasma concentration (fCss,avg) at clinically relevant doses; set-up: species or system human
LDT2 [2] = target: T1, LDT2 (Mycobacterium abscessus, UniProt B1MMQ4); test: Circular dichroism spectroscopy; assay type: binding; conditions: 5 µM LDT2, 10 µM β-lactam, 2 h, 25°C
T1 sequence (B1MMQ4 entry or part of it): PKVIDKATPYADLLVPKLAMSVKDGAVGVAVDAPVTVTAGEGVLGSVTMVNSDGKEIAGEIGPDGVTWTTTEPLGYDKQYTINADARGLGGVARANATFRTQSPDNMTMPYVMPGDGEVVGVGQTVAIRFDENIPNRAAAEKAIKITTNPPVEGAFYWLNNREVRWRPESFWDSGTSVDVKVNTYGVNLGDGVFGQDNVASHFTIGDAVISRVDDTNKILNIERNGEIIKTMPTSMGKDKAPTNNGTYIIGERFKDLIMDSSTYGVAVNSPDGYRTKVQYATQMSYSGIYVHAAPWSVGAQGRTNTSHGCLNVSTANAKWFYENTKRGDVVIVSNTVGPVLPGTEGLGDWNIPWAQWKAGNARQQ
Experimental: The circular dichroism spectra of LDT2 (5 µM in PBS buffer) were recorded on a circular dichroism spectrometer with a 2 mm path length, both in the absence and presence of 10 µM imipenem, ceftaroline, sulopenem, and cefuroxime at 25°C. To ensure the detection of conformational changes, LDT2 and the β-lactams were incubated at room temperature for 2 h. The contribution of each β-lactam alone was subtracted in each case.

BlaMab = BlaMab (Mycobacterium abscessus, UniProt B1MCI3); test: Ki,app for the β-lactamase; assay type: biochemical
Chain of BlaMab (B1MCI3 entry or part of it): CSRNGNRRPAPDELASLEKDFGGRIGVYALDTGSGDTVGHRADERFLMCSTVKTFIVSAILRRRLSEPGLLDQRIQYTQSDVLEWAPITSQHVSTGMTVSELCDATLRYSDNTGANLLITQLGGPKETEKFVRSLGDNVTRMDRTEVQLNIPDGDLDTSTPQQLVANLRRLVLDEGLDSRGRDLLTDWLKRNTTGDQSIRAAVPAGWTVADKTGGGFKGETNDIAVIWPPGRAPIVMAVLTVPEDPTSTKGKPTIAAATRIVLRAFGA

PBP B = PBP B (Mycobacterium abscessus, UniProt B1MP31); test: Steady-state kinetics with nitrocefin (Ki,app); assay type: biochemical;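 on Ratio of fCss,avg to Ki,app, PBP B: Parenthesised value is the fCss,avg to Ki,app ratio where above 1 means target likely hit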
Chain of PBP B (B1MP31 entry or part of it): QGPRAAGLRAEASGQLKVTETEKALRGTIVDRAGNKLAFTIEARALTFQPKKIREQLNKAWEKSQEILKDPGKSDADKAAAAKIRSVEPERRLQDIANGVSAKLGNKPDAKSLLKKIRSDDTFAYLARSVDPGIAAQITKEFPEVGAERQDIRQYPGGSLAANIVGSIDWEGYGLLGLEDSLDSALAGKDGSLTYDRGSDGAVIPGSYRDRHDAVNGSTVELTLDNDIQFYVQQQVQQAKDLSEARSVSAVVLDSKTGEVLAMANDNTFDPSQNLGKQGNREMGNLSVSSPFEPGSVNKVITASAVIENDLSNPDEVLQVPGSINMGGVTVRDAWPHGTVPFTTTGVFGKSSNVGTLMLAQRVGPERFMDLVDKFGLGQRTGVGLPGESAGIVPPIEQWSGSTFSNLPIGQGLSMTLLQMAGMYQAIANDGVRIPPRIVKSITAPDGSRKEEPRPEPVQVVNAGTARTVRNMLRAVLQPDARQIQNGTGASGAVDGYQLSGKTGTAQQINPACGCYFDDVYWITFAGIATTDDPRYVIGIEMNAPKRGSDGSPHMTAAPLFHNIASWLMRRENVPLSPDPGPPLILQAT
Experimental: (§1) Steady-state kinetic studies were conducted using purified LDTs and PBPs (LDT1-5, PBP B, PBP-lipo, and DDC) as previously described ([20]). The assays were performed using a BioTek Synergy2 multimode reader in conjunction with Gen5 analysis software. […] To determine reaction velocities, a 0.25 cm path length was employed. The steady-state kinetic parameters (Vmax, kcat, and Km) were obtained by fitting the data to the Henri-Michaelis-Menten equation using a nonlinear least-squares fit in Origin 8.1 software (OriginLab, Northampton, MA). The reaction rate (v) at a given substrate concentration ([S]) was calculated according to the following equations: […]
(§2) Changes in absorbance at 482 nm were measured over a period of 0–30 min for each concentration of β-lactams and BLIs. Data were linearized using a Dixon plot, plotting the inverse changes in absorbance (1/ΔA) against the concentrations of β-lactams and BLIs. The observed Ki,app was determined directly from the Dixon plot, and these values were corrected for substrate concentration and affinity for the LDT using the following equation:
(§3) Ki,app=observed Ki,app/1+[NCF]/Km NCF

LDT5 = LDT5 (Mycobacterium abscessus, UniProt B1MM58); test: Steady-state kinetics with nitrocefin (Ki,app); assay type: biochemical; conditions: in parentheses in Table 3
Chain of LDT5 (B1MM58 entry or part of it): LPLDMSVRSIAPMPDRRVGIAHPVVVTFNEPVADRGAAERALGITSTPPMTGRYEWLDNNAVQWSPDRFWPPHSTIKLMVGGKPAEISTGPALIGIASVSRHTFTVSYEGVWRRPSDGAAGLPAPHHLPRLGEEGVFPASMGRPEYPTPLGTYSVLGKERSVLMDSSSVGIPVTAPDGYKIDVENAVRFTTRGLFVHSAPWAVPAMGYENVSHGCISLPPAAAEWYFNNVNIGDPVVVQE
Experimental: as §1, §2, §3

DDC = DDC (Mycobacteroides abscessus, UniProt B1MDJ1); test: Steady-state kinetics with nitrocefin (Ki,app); assay type: biochemical; conditions: in parentheses in Table 3;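 further: Parenthesised value is the fCss,avg to Ki,app ratio where above 1 means target likely hit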
Chain of DDC (B1MDJ1 entry or part of it): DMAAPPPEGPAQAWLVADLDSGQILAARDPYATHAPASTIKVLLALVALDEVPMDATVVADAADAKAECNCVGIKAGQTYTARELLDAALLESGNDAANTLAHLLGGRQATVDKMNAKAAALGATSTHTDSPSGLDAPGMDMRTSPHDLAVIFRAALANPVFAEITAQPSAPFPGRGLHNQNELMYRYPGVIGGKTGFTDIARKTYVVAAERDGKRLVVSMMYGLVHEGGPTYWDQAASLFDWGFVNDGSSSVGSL
Experimental: as §1, §2, §3

PBP-lipo [3] = target: T2, PBP-lipo (Mycobacteroides abscessus, UniProt B1MDC3); test: Bocillin-FL binding assay; conditions: 2 h incubation, 1:10 molar ratio
T2 construct: made in house; host or cells: Escherichia coli BL21 (DE3)
T2 sequence (B1MDC3 entry or part of it): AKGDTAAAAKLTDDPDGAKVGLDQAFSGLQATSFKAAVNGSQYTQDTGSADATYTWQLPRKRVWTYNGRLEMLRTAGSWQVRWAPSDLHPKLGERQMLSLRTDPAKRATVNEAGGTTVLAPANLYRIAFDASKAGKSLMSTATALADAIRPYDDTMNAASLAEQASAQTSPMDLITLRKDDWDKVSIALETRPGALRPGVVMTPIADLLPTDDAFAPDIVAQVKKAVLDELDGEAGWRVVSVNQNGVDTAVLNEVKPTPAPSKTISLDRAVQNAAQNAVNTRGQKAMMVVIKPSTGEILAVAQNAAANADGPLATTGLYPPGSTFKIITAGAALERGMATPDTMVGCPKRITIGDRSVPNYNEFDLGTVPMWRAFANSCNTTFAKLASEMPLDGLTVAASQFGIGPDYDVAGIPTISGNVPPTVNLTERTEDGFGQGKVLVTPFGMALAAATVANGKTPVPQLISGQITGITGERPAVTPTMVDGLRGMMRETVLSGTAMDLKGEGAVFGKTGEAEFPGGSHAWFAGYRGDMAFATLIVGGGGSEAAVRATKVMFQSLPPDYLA
Experimental: To analyze the binding of PBP-lipo with β-lactams or BLIs, purified PBP-lipo (4 µg) was incubated with β-lactams or BLIs at a 1:10 molar ratio in a buffer containing 10 mM sodium phosphate (pH 7.4) and 150 mM NaCl. The incubation was carried out for 2 h at room temperature. After the initial incubation, 1 µM Bocillin FL was added to the reaction mixture. The incubation was continued for an additional 3–4 h at 37°C. After incubation, the samples were boiled to denature the proteins. The samples were then subjected to SDS-PAGE. The PBP-lipo:Bocillin complexes were visualized by fluorescence analysis at a wavelength of 488 nm using an Azure 300 gel imaging system. The intensity of the PBP-lipo:Bocillin complex bands was analyzed using GelAnalyzer software. The intensity of the band for PBP-lipo alone (without β-lactams) was set to 1 as the highest intensity. The intensity of each band for PBP-lipo incubated with β-lactams was then normalized by dividing by the intensity of the band for PBP-lipo alone.

LDT4 = LDT4 (Mycobacterium abscessus, UniProt B1MKW1); test: Steady-state kinetics with nitrocefin (Ki,app); assay type: biochemical; conditions: in parentheses in Table 3
Chain of LDT4 (B1MKW1 entry or part of it): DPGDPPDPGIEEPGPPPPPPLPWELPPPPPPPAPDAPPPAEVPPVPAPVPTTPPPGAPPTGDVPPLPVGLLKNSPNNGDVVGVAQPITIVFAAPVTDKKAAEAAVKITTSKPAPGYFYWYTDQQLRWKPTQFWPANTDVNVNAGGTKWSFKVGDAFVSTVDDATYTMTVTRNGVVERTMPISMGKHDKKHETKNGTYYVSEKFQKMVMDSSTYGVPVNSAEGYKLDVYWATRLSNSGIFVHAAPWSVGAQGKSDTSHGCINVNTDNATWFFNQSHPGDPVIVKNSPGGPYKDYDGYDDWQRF
Experimental: (§4) Steady-state kinetic studies were conducted using purified LDTs and PBPs (LDT1-5, PBP B, PBP-lipo, and DDC) as previously described ([20]). The assays were performed using a BioTek Synergy2 multimode reader in conjunction with Gen5 analysis software. Increasing concentrations of NCF (Δε482 = 17,400 M^⁻¹ cm^⁻¹) were used, while fixed concentrations of the LDTs and PBPs were monitored for changes in absorbance at 482 nm over a time period of 0 to 10 min. To determine reaction velocities, a 0.25 cm path length was employed. The steady-state kinetic parameters (Vmax, kcat, and Km) were obtained by fitting the data to the Henri-Michaelis-Menten equation using a nonlinear least-squares fit in Origin 8.1 software (OriginLab, Northampton, MA). The reaction rate (v) at a given substrate concentration ([S]) was calculated according to the following equations: […]
as §2, with “To determine the apparent inhibition constants (Ki,app) for β-lactams and BLIs, the following experimental condition was employed: NCF as a substrate at a concentration of 5 × Km, LDT/ PBP enzymes with fixed concentration, and β-lactams and BLIs with various concentrations. Changes” for “Changes”
as §3

PBP-lipo [4] = target: T2, PBP-lipo; test: Steady-state kinetics with nitrocefin (Ki,app); assay type: biochemical
Experimental: as §4
as §2, with “To determine the apparent inhibition constants (Ki,app) for β-lactams and BLIs, the following experimental condition was employed: NCF as a substrate at a concentration of 5 × Km, LDT/ PBP enzymes with fixed concentration, and β-lactams and BLIs with various concentrations. Changes” for “Changes”
as §3

LDT1 = LDT1 (Mycobacterium abscessus, UniProt B1MDC1); test: Steady-state kinetics with nitrocefin (Ki,app); assay type: biochemical; conditions: for Ki: nitrocefin at 5 × Km, read-out: Ki,app LDT1 (converted)
Chain of LDT1 (B1MDC1 entry or part of it): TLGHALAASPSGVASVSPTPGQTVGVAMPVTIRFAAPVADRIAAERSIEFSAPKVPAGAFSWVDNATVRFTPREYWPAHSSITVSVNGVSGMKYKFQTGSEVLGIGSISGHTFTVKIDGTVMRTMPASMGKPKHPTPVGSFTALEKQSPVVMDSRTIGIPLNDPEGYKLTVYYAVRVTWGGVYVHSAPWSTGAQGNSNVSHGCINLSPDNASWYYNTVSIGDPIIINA
Experimental: as §4
as §2, with “To determine the apparent inhibition constants (Ki,app) for β-lactams and BLIs, the following experimental condition was employed: NCF as a substrate at a concentration of 5 × Km, LDT/ PBP enzymes with fixed concentration, and β-lactams and BLIs with various concentrations. Changes” for “Changes”
as §3

LDT2 [5] = target: T1, LDT2; test: Steady-state kinetics with nitrocefin (Ki,app); assay type: biochemical; conditions: for Ki: nitrocefin at 5 × Km, read-out: Ki,app LDT2 (converted)
Experimental: as §4
as §2, with “To determine the apparent inhibition constants (Ki,app) for β-lactams and BLIs, the following experimental condition was employed: NCF as a substrate at a concentration of 5 × Km, LDT/ PBP enzymes with fixed concentration, and β-lactams and BLIs with various concentrations. Changes” for “Changes”
as §3

LDT3 = LDT3 (Mycobacterium abscessus, UniProt B1MHQ4); test: Mass spectrometry of covalent adduct formation; assay type: binding; conditions: protein:drug 1:20, 2 h; mass accuracy ±5 Da; (−) = no change
Chain of LDT3 (B1MHQ4 entry or part of it): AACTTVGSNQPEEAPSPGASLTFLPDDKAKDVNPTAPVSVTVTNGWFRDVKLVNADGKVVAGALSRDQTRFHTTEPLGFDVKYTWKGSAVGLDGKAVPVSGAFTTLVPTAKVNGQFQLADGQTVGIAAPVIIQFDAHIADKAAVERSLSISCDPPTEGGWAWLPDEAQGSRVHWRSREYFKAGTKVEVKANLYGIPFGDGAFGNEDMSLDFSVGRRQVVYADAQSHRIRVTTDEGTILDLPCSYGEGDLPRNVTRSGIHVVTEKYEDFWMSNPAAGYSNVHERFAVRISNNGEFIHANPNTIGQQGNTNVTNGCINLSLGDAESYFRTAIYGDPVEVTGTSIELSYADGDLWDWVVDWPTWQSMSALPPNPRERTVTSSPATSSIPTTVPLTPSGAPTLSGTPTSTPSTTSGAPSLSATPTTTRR
Experimental: Truncated sequences of LDT1-5, DDC, PBP B, and PBP-lipo (Δ1–41) were generated by Celtek Biosciences and cloned into the pET28(a) + vector with a tobacco etch virus (TEV) protease cleavage site before the start codon. Clones were transformed into Escherichia coli BL21 (DE3) and grown to an OD600 of 0.6–0.8. Protein expression was induced with 0.25 mM isopropyl β-d-1-thiogalactopyranoside (IPTG) and incubated for 18 h at 18°C. Cell pellets were collected and stored at −20°C overnight, then resuspended in a buffer containing 50 mM Tris (pH 8.0), 400 mM sodium chloride, and 1 mM Tris (2-carboxyethyl) phosphine hydrochloride (TCEP), followed by sonication and centrifugation. The supernatant was purified using a His Prep FF 16/10 column (GE Healthcare) and eluted with 500 mM imidazole. Eluted protein was dialyzed overnight at 4°C in a buffer with 50 mM Tris (pH 8.0), 150 mM sodium chloride, and 0.5 mM TCEP in the presence of His-tagged TEV protease. To remove the His tag, the mixture was passed over the His Prep FF 16/10 column again.
The purified proteins listed above were incubated at room temperature with β-lactams or BLIs at a molar ratio of 1:20 for 2 h. The reactions were then quenched with acetonitrile and diluted to 1 mL with 0.1% formic acid in water. Samples were analyzed using a quadrupole time-of-flight (Q-TOF) Waters Synapt-G2-Si electrospray ionization mass spectrometer (ESI-MS) and a Waters Acquity H class ultra-performance liquid chromatography (UPLC) system, equipped with a BEH C18 1.7 µm column (2.1 × 50 mm). The MS was tuned with the following settings: capillary voltage set at 3 kV, sampling cone at 35 V, source offset at 35, source temperature of 100°C, desolvation temperature of 500°C, cone gas flow rate at 100 L/h, desolvation gas flow rate at 800 L/h, and nebulizer set at 6.0. The mobile phases consisted of 0.1% formic acid in water and 0.1% formic acid in 100% acetonitrile, with gradient elution from 10% to 90% of […] over 11 min. The system’s mass accuracy was ±5 Da.

[6] = tested on: Mycobacterium abscessus ATCC 19977 strain; test: Morphological changes by flow cytometry and confocal microscopy; assay type: cell-based; conditions: clinically relevant unbound concentrations (fCss,ave), 24 h
Experimental: Flow cytometry was employed to evaluate morphological changes in individual bacterial cells following PBP-lipo inactivation after 24 h of β-lactam treatment. The bacterial cells were stained using the BacLight kit L7012 (Thermo Fisher Scientific, Waltham, MA), containing SYTO 9 and propidium iodide (PI). Analysis was performed using a CytoFLEX flow cytometer (Beckman Coulter, CA), with data processed using CytExpert software.
Bacterial morphological changes resulting from PBP-lipo inactivation were investigated using an ImageXpress Micro Confocal Microscope (Molecular Devices, CA). The staining procedures applied to the samples mirrored those used for flow cytometry. Stained bacterial cells were placed in optically clear flat-bottom 96-well plates, and observations were conducted at 60× magnification. Cell length measurements were obtained through automated image analysis using MetaXpress 6 software.

Mab ATCC 19977 = test: Static drug-concentration time-kill (SCTK) assay with CART analysis; assay type: cell-based, Mycobacterium abscessus; conditions: clinically achievable concentrations, over 10 days; AVI 4 mg/L; DUR 12 mg/L + SUL 7 mg/L
[7] = ATCC19977, Mab ATCC 19977, no BLI added, 30°C, 48 h

For `NCC[C@H](O)C(=O)N[C@@H]1C[C@H](N)[C@@H](O[C@H]2O[C@H](CN)[C@@H](O)[C@H](O)[C@H]2O)[C@H](O)[C@H]1O[C@H]1O[C@H](CO)[C@@H](O)[C@H](N)[C@H]1O` [Amikacin, amikacin], the MIC (Mab ATCC 19977 strain; [7]) was 16 µg/mL (≈ 27.3 µM) and the “Average unbound concentration at steady-state” value ([1]; amikacin doses between 20 and 30 mg/kg) was 12 mg/L.

With `CO[C@@]1(NC(=O)Cc2cccs2)C(=O)N2C(C(=O)O)=C(COC(N)=O)CS[C@@H]21` [Cefoxitin, cefoxitin] the MIC (Mab ATCC 19977 strain; [7]) was 16 µg/mL (≈ 37.4 µM).

With `CCO/N=C(\C(=O)N[C@@H]1C(=O)N2C(C(=O)[O-])=C(Sc3nc(-c4cc[n+](C)cc4)cs3)CS[C@H]12)c1nsc(N)n1` [Ceftaroline, ceftaroline] the MIC (Mab ATCC 19977 strain; ATCC19977, 48 h) was 16 µg/mL (≈ 26.5 µM), the “MIC, + AVI (4 mg/L)” value (Mab ATCC 19977 strain; fixed avibactam 4 mg/L) was 1 to 2 µg/mL and the “MIC, + DUR + SUL (1 mg/L)” value (Mab ATCC 19977 strain; fixed durlobactam 1 mg/L + sulbactam 1 mg/L) was 2 µg/mL. For the same compound, the “Conformational change of LDT2 (CD spectrum)” value (LDT2 [2]) was “altered its secondary structure”, the “fCss,avg” value ([1]; median unbound average steady-state plasma concentration, continuous infusion, daily dose DUR 4,000, AVI 1,500, IPM 4,000, CFT 1,800, AMX 1,500, SULO 1,000, CXM 1,500, SUL 4,000, TBP 1,800 mg) was 7 mg/L and the Ki (BlaMab) was 681 µM. For the same compound, the Ki (PBP B) was 2.32 µM, the “Ratio of fCss,avg to Ki,app, PBP B” value (PBP B; in parentheses in Table 3) was 5 and the “Ratio of fCss,avg to Ki,app, LDT5” value (LDT5) was 0.1. The “Ratio of fCss,avg to Ki,app, DDC” value (DDC) was 0.3, the “Binding to PBP-lipo (Bocillin-FL competition)” value (PBP-lipo [3]) was “demonstrated binding to PBP-lipo” and the “Ratio of fCss,avg to Ki,app, LDT4” value (LDT4) was 0.1. The Ki (PBP-lipo [4]) was 23.2 µM, the “Ratio of fCss,avg to Ki,app, PBP-lipo” value (PBP-lipo [4]; in parentheses in Table 3) was 0.5 and the “Ratio of fCss,avg to Ki,app, LDT1” value (LDT1; in parentheses in Table 3) was 14. The Ki (LDT1) was 0.827 µM, the “Ratio of fCss,avg to Ki,app, LDT2” value (LDT2 [5]; in parentheses in Table 3) was 10 and the Ki (LDT2 [5]) was 1.16 µM. The “Observed MW (+ change in mw), LDT3 (44,795)” value (LDT3) was 44,794 (−) Da.

In the case of `CC[C@H]1OC(=O)[C@H](C)[C@@H](O[C@H]2C[C@@](C)(OC)[C@@H](O)[C@H](C)O2)[C@H](C)[C@@H](O[C@@H]2O[C@H](C)C[C@H](N(C)C)[C@H]2O)[C@](C)(OC)C[C@@H](C)C(=O)[C@H](C)[C@@H](O)[C@]1(C)O` [Clarithromycin, clarithromycin], the MIC (Mab ATCC 19977 strain; [7]) is reported as 8 µg/mL (≈ 10.7 µM) and the “Steady-state average unbound concentration” value ([1]; daily dose of 1000 mg) is reported as 0.3 mg/L.

For `CC1(C)[C@H](C(=O)O)N2C(=O)C[C@H]2S1(=O)=O` [Sulbactam, sulbactam], the “Morphological change of Mab cells” value [6] was “did not induce noticeable morphological changes”, the Ki (PBP B) was 55.7 µM and the “Bacterial killing (log10 reduction) in time-kill” value (Mab ATCC 19977) was “no bacterial killing”. It also gave a Ki (LDT1) of 643 µM and a Ki (LDT2 [5]) of 0.0857 µM.
